Laboratory results reported in patent US20250236530A1, “ACCELERATED TOOTH REMINERALIZATION TECHNOLOGY” (Creighton University, priority 2022, published 2025).
Where two headings read alike, the source gives them in different places.

Key:
[1] = for initial conductivity reading at 3 seconds: first reading 3 seconds; for percent of NaF dissolved in the first 3 seconds: from conductivity; for percent of salt dissolved in first 3 seconds: room temperature, FIG. 5; for 3 sec Dissolution: Table 4, 3 sec; for 200 sec Dissolution: Table 4, 200 sec; for 400 sec Dissolution: Table 4, 400 sec; for 800 sec Dissolution: Table 4, 800 sec
Method: Such a test is a standard test that is well understood in the scientific community. In this experiment, at room temperature, 35 mg of commercially available solid cubic sodium fluoride was added to a beaker. A conductivity probe was placed into the beaker. 25 mL of ultrapure water was added to the beaker, instantaneously submerging the conductivity probe. Conductivity data can be collected every 3 seconds on the probe.
This is tested by adding to a beaker 56 mg of the given salt to be tested. To this is added a conductivity probe. As the salt is added, the solution is stirred.
The dissolution rate of NaF crystals correlates to the conductivity of NaF in solution. That is to say, as salt dissolves in water, the conductivity of the salt solution increases. […] Conductivity is utilized to test the rate of dissolution. The conductivity of ultrapure water is approximately […] when no ions are present. The first reading on the conductivity meter can be made 3 seconds after the experiment begins.

[2] = Surface area (BET method) normalized to mass; assay type: physicochemical
Excerpt: Further characterization of the HSA NaF crystals compared to the solid cubic commercially available crystals of sodium fluoride examined the surface area (BET method) normalized to the mass of the crystals. […] Use of either of the Hall density of the surface area normalized to mass allows for a quantitative mechanism to differentiate the crystal formation.

[3] = Hall density (ASTM Standard B212-99)

## [F-].[Na+] [85% ethanol formulation, sodium fluoride]
[1]; FIG. 7A
  initial conductivity reading at 3 seconds: 2,068 μS/cm
  percent of NaF dissolved in the first 3 seconds: approximately 79%

## [F-].[Na+] [HSA NaF crystals, sodium fluoride]
[2]; listed as hopper crystals
  surface area to mass ratio: 0.22±0.04 m^2/g
[1]; 35 mg in 25 mL ultrapure water, listed as HSA crystal NaF
  percent of salt dissolved in first 3 seconds: approximately 90%
[1]; listed as High Surface Area
  3 sec Dissolution: ~2,600
  200 sec Dissolution: ~2,625
  400 sec Dissolution: ~2,700
  800 sec Dissolution: ~2,750
[1]; conductivity as a function of time
  rate of dissolution in aqueous environment compared with commercial cubic crystals: greater rate than commercially available cubic crystals
[1]; dissolution in water
  time to reach virtual maximum release: 3 s
[3]; listed as HSA NaF hopper crystals
  Hall density: 0.68 ± 0.04 g/mL

## [F-].[Na+] [commercial NaF, sodium fluoride]
[2]; listed as commercial crystals
  surface area to mass ratio: 0.12±0.02 m^2/g
[1]; 35 mg in 25 mL ultrapure water, listed as commercially available solid cubic sodium fluoride
  percent of salt dissolved in first 3 seconds: approximately 33%
[1]; FIG. 7A
  conductivity after all of the salt dissolved: 2,605 μS/cm
  time before all the NaF dissolved: About 500 seconds
  initial conductivity reading at 3 seconds: 1,127 μS/cm
  percent of NaF dissolved in the first 3 seconds: ~43%
[1]; listed as Ordinary
  3 sec Dissolution: ~1,000
  200 sec Dissolution: ~1,175
  400 sec Dissolution: ~1,500
  800 sec Dissolution: ~2,500
[1]; dissolution in water
  time for ordinary crystal to reach the concentration of HSA crystal's virtual maximum release: more than ten minutes
[3]; listed as Commercial solid cubic crystals of sodium fluoride
  Hall density: 0.86 ± 0.03 g/mL

## [F-].[Na+] [crystals made from precipitation into 90% ethanol] [sodium fluoride]
[1]; FIG. 7A
  percent of NaF dissolved in the first 3 seconds: 60%

## [F-].[Na+] [sodium fluoride]
[1]; 35 mg in 25 mL ultrapure water
  peak conductivity of sodium fluoride solution: approximately 3,000 μS/cm
